Laboratory results taken from US20030068615A1, “Polypeptides that bind HIV gp120 and related nucleic acids, antibodies, compositions, and methods of use” (priority 1999, published 2003).
Values joined by “and” are separate entries in the source; they are usually repeats but may differ in a detail not shown here. Equal values may be shown once. Read-outs that look alike come from different tables or passages of the source.

Biological target: HIV-1LAI envelope gp120 (Human immunodeficiency virus type 1 group M subtype B, UniProt P03377)
Assay type: binding
Conditions: for Counts per 20′ Average-background: CCR5 18-mer scan, radiolabeled HIV-1LAI gp120; for number of radioactive decays (counts) counted: human CD4 21-mer scan, empty control 2075
[1] = CXCR4 18-mer scan, background subtracted, empty control 0
[2] = CXCR4 18-mer scan, empty control 412
[3] = Panel C, 15-mers and 18-mers of CD4, empty control 556
[4] = STRL33 18-mer scan, background subtracted, first of two count columns
[5] = STRL33 18-mer scan, background subtracted, second of two count columns
[6] = Panel E, 9-mers and 12-mers of CD4, empty control 571
[7] = Panel B, 15-mers and 18-mers of CD4, empty control 575
[8] = Panel D, 9-mers and 12-mers of CD4, empty control […]

**Q.** EEVQLLVFGATANSD was tested. Which “COUNTS of radiolabeled gp120 retained” value (Panel F, sequential alanine replacements of CD4 polypeptides, duplicate series, empty control 569) did it give?
**A.** 19978 counts and 10408 counts

**Q.** Which results are given for FKTSAQHALTSVSRGSSL?
**A.** radioactive counts recorded in twenty minutes [1]: 173 counts; radioactive counts recorded in twenty minutes [2]: 585 counts

**Q.** VEKLTGSGELWWQAE was tested. Which “COUNTS of radiolabeled gp120 retained” value [3] did it give?
**A.** 735 counts

**Q.** How did the “radioactive counts recorded in twenty minutes” value (from here on “radioactive counts recorded”) [1] turn out when ATNSQRPRKLLAEKVVYV was run?
**A.** 78 counts

**Q.** And the “radioactive counts recorded” value [2]?
**A.** 490 counts

**Q.** Which “radioactive counts recorded” value [4] does the source give for “FYTSMLILTCITVDRFIV [STRL33 segment 113-130]” here?
**A.** 744.5 counts

**Q.** What about the “radioactive counts recorded” value [5] of the same sequence?
**A.** 907.5 counts

**Q.** What does the source list for “HWEYYAMTSFHYTIMVTE [STRL33 segment 257-274]”?
**A.** radioactive counts recorded in twenty minutes [4]: 2040.5 counts; radioactive counts recorded in twenty minutes [5]: 3065.5 counts

**Q.** With TVLQNQKKV as the sequence, how does the “COUNTS of radiolabeled gp120 retained” value [6] read?
**A.** 534 counts

**Q.** With YICEVEDQKEEVQLL as the sequence, how does the “COUNTS of radiolabeled gp120 retained” value [7] read?
**A.** 1064 counts

**Q.** How did the “radioactive counts recorded” value [4] turn out when MTWGKVTSLLIWVISLLV was run?
**A.** −0.5 counts

**Q.** And the “radioactive counts recorded” value [5]?
**A.** −26.5 counts

**Q.** What does the source list for DDRYICDRFYPNDLWVVV?
**A.** radioactive counts recorded in twenty minutes [1]: 125 counts; radioactive counts recorded in twenty minutes [2]: 537 counts

**Q.** How did the “COUNTS of radiolabeled gp120 retained” value [3] turn out when DIVVLAFQKASSIVYKKE was run?
**A.** 660 counts

**Q.** What does the source list for “TDKYRLHLSVADLLFVIT [CXCR4 segment 73-90]”?
**A.** radioactive counts recorded in twenty minutes [1]: 92 counts; radioactive counts recorded in twenty minutes [2]: 504 counts

**Q.** For “DYHEDYGFSSFNDSSQEE [STRL33 segment 5-22]”, which “radioactive counts recorded” value [4] is on record?
**A.** 3357.5 counts

**Q.** What about the “radioactive counts recorded” value [5] of the same sequence?
**A.** 3689.5 counts

**Q.** What about the “Binding Results For Window Length (counts bound-background), 9” value (STRL33 amino terminus, 9-mer starting at the first residue of the printed sequence, background subtracted) of the same sequence?
**A.** 851 counts

**Q.** And the “Binding Results For Window Length (counts bound-background), 12” value (STRL33 amino terminus, 12-mer starting at the first residue of the printed sequence, background subtracted)?
**A.** 1554 counts

**Q.** And the “Binding Results For Window Length (counts bound-background), 15” value (STRL33 amino terminus, 15-mer starting at the first residue of the printed sequence, background subtracted)?
**A.** 1240 counts

**Q.** What about the “Binding Results For Window Length (counts bound-background), 18” value (STRL33 amino terminus, 18-mer starting at the first residue of the printed sequence, background subtracted) of the same sequence?
**A.** 1191 counts

**Q.** FKIDIVVLAFQK was tested. Which “COUNTS of radiolabeled gp120 retained” value [6] did it give?
**A.** 736 counts

**Q.** THLLQGQSL was tested. Which “COUNTS of radiolabeled gp120 retained” value [8] did it give?
**A.** 512 counts

**Q.** Which “COUNTS of radiolabeled gp120 retained” value [6] does the source give for LQNQKKVEF here?
**A.** 565 counts

**Q.** How did the “COUNTS of radiolabeled gp120 retained” value (Panel G, alanine replacements and serial truncations (Z) of CD4 polypeptides, empty control 580) turn out when GEQVEFSFPLAATVE was run?
**A.** 10130 counts and 9572 counts

**Q.** FGLTANSDTHLLQGQ was tested. Which “COUNTS of radiolabeled gp120 retained” value [7] did it give?
**A.** 625 counts

**Q.** With LKIEDSDTYICEVED as the sequence, how does the “COUNTS of radiolabeled gp120 retained” value [7] read?
**A.** 846 counts

**Q.** What does the source list for “IIKQGCEFENTVEKWISI [CXCR4 segment 269-286]”?
**A.** radioactive counts recorded in twenty minutes [1]: 106 counts; radioactive counts recorded in twenty minutes [2]: 518 counts

**Q.** Which “Counts per 20′ Average-background” value (background subtracted) does the source give for ILKTLLRCRNEKKRHRAV here?
**A.** 19 counts per 20′

**Q.** Which “radioactive counts recorded” value [1] does the source give for SDNYTEEMGSGDYDSMKE [CXCR4 segment 9-26] here?
**A.** 43 counts

**Q.** And the “radioactive counts recorded” value [2]?
**A.** 455 counts

**Q.** Which “COUNTS of radiolabeled gp120 retained” value [3] does the source give for FKIDIVVLAFQKASSIVY here?
**A.** 843 counts

**Q.** For FQKASSIVY, which “COUNTS of radiolabeled gp120 retained” value [6] is on record?
**A.** 568 counts

**Q.** How did the “COUNTS of radiolabeled gp120 retained” value [8] turn out when NSDTHLLQG was run?
**A.** 561 counts

**Q.** For “GQVLLESNIKVLPTWSTPVQP [human CD4 376-396]”, which “number of radioactive decays (counts) counted” value (shortened to “number of radioactive decays”) is on record?
**A.** 2089 counts

**Q.** With VDRFIVVVKATKAYNQQA as the sequence, how does the “radioactive counts recorded” value [4] read?
**A.** 103.5 counts

**Q.** And the “radioactive counts recorded” value [5]?
**A.** 53.5 counts

**Q.** With “AFTVEKLTGSGELWWQAERAS [human CD4 226-246]” as the sequence, how does the “COUNTS of radiolabeled gp120 retained” value (Panel A, 21-mers of CD4, empty control 515 and 617) read?
**A.** 1739 counts

**Q.** And the “number of radioactive decays” value?
**A.** 3992 counts

**Q.** FPLAFTVEKLTGSGE was tested. Which “COUNTS of radiolabeled gp120 retained” value [3] did it give?
**A.** 556 counts

**Q.** “LKNKEVSVKPVTQDPKLQMGK [human CD4 256-276]” was tested. Which “number of radioactive decays” value did it give?
**A.** 2288 counts

**Q.** With LIIKNLKIEDSD as the sequence, how does the “COUNTS of radiolabeled gp120 retained” value [8] read?
**A.** 619 counts

**Q.** Which “Gp120 Bound (counts)” value (active CD4 fragments: 9-, 12-, 15-, 18- and 21-mers, background not subtracted) does the source give for QVEFSFPLLA here?
**A.** 1205 counts

**Q.** With EDQKEEVQL as the sequence, how does the “COUNTS of radiolabeled gp120 retained” value [8] read?
**A.** 564 counts

**Q.** Which “radioactive counts recorded” value [1] does the source give for “FLTGIVGNGLVILVMGYQ [CXCR4 segment 49-66]” here?
**A.** 246 counts

**Q.** What about the “radioactive counts recorded” value [2] of the same sequence?
**A.** 658 counts

**Q.** How did the “COUNTS of radiolabeled gp120 retained” value [3] turn out when FSFPLAFTVEKLTGSGEL was run?
**A.** 613 counts

**Q.** What does the source list for IFANVSEADDRYICDRFY?
**A.** radioactive counts recorded in twenty minutes [1]: 267 counts; radioactive counts recorded in twenty minutes [2]: 679 counts

**Q.** DTHLLQGQSLTL was tested. Which “COUNTS of radiolabeled gp120 retained” value [8] did it give?
**A.** 527 counts

**Q.** Which “COUNTS of radiolabeled gp120 retained” value [3] does the source give for IVYKKEGEQVEFSFP here?
**A.** 615 counts

**Q.** Which “Counts per 20′ Average-background” value (background subtracted) does the source give for FIFGFVGNMLVILILINC [CCR5 segment 41-58] here?
**A.** 343 counts per 20′
